From US5364861A, “Optical isomers of 7-[3-(1,1-dialkylmethyl-1-amino-1-pyrrolidinyl]-quinolones and naphthyridones as antibacterial agents” (Warner-Lambert Company, priority 1993, dated 1994)
≈ marks a conversion by molar mass, not a printed value. Where a name gives a salt, the structure may show the parent alone. Read-outs that look alike come from different tables or passages of the source.

Legend:
Strep. faecalis MGH-2 = test: in vitro antibacterial activity, microtitration dilution (MIC), Strep. faecalis MGH-2; type: cell-based; details: Enterococcus faecalis, MGH2, read-out: minimum inhibiting concentration (MIC)
From the text: (§1) The in vitro antibacterial activity is obtained when tested by the microtitration dilution method as described in Heifetz, et al., Antimicr. Agents & Chemother. 1974;6:124, which is incorporated herein by reference.
(§2) By use of the above methods, the following minimum inhibiting concentration values (MICs in μg/ml), PD50 's in mg/kg, no effect phototoxicity dose in mg/kg and the cytotoxicity IC50 in μg/mL were obtained for representative enantiomers of the invention and compounds of the prior art as shown in the table.

Strep. pyogenes C-203 [1] = test: median protective dose in mice given lethal systemic infection, Strep. pyogenes; type: in vivo; details: Streptococcus pyogenes, C203, Strep. pyogenes, single dose at time of challenge, route not given, read-out: median protective dose (PD50)
Method: (§3) The in vivo activity is obtained when the compounds are tested according to the procedure of Miller, et al (Proc. Soc. Exp. Biol. Med. 1944;57:261). The median protective dose (PD50) was determined in mice given lethal systemic infections. Single doses of compound were given at time of challenge.
as §2
(§4) The in vivo data as PD50 's are reported below the line of MICs for the same compound.

Esch. coli Vogel [2] = test: in vitro antibacterial activity, microtitration dilution (MIC), Esch. coli Vogel; type: cell-based; details: Escherichia coli, read-out: minimum inhibiting concentration (MIC)
From the text: as §1, §2

Staph. aureus UC-76 = test: in vitro antibacterial activity, microtitration dilution (MIC), Staph. aureus UC-76; type: cell-based; details: Staphylococcus aureus, UC76, read-out: minimum inhibiting concentration (MIC)
From the text: as §1, §2

Staph. aureus H 228 = test: in vitro antibacterial activity, microtitration dilution (MIC), Staph. aureus H 228; type: cell-based; details: Staphylococcus aureus, H228, read-out: minimum inhibiting concentration (MIC)
From the text: as §1, §2

Strep. pyogenes C-203 [3] = test: in vitro antibacterial activity, microtitration dilution (MIC), Strep. pyogenes C-203; type: cell-based; details: Streptococcus pyogenes, C203, read-out: minimum inhibiting concentration (MIC)
From the text: as §1, §2

Esch. coli Vogel [4] = test: median protective dose in mice given lethal systemic infection, Esch. coli; type: in vivo; details: Escherichia coli, single dose at time of challenge, route not given, read-out: median protective dose (PD50)
Method: as §3, §2, §4

Prot. rettgeri M 1771 = test: in vitro antibacterial activity, microtitration dilution (MIC), Prot. rettgeri M 1771; type: cell-based; details: Providencia rettgeri, M1771, read-out: minimum inhibiting concentration (MIC)
From the text: as §1, §2

Ent. cloacae MA2646 = test: in vitro antibacterial activity, microtitration dilution (MIC), Ent. cloacae MA2646; type: cell-based; details: Enterobacter cloacae, read-out: minimum inhibiting concentration (MIC)
From the text: as §1, §2

Klebs. pneumoniae MGH-2 = test: in vitro antibacterial activity, microtitration dilution (MIC), Klebs. pneumoniae MGH-2; type: cell-based; details: Klebsiella pneumoniae, MGH2, read-out: minimum inhibiting concentration (MIC)
From the text: as §1, §2

Strep. pneumoniae SV-1 = test: in vitro antibacterial activity, microtitration dilution (MIC), Strep. pneumoniae SV-1; type: cell-based; details: Streptococcus pneumoniae, SV1, read-out: minimum inhibiting concentration (MIC)
From the text: as §1, §2

Pseud. aeruginosa UI-18 [5] = test: in vitro antibacterial activity, microtitration dilution (MIC), Pseud. aeruginosa UI-18; type: cell-based; details: Pseudomonas aeruginosa, UI18, read-out: minimum inhibiting concentration (MIC)
From the text: as §1, §2

[6] = cytotoxicity, colony reduction of hamster V-79 cells; type: cell-based; details: 3 hours treatment, colonies counted after 5 days, read-out: cytotoxicity IC50 (Cytotox)
Method: The cytotoxicity data is obtained using hamster V-79 cells. The cells were suspended in tissue culture medium and grown overnight. Cells were treated with drug for 3 hours, washed free of drug and then replated, and the colonies counted after 5 days. The concentration of drug that reduced colonies by 50% relative to control was recorded.
as §2

Pseud. aeruginosa UI-18 [7] = test: median protective dose in mice given lethal systemic infection, Pseud. aeruginosa; type: in vivo; details: Pseudomonas aeruginosa, UI18, Pseud. aeruginosa, single dose at time of challenge, route not given, read-out: median protective dose (PD50)
Method: as §3, §2, §4

in vivo = test: in vivo; set-up: species or system mice; details: mouse, po
Method: The phototoxicity data is obtained using depilated mice. Compound was administered orally each day for four successive days, followed each day by 3 hours of […] radiation. The mice were examined for any positive signs (redness, erythema) relative to control animals. The no effect dose and the 50% effect dose were determined. By use of the above methods, the following minimum inhibiting concentration values (MICs in μg/ml), PD50 's in mg/kg, no effect phototoxicity dose in mg/kg and the cytotoxicity IC50 in μg/mL were obtained for representative enantiomers of the invention and compounds of the prior art as shown in the table.

Structure (SMILES) | MIC (Strep. faecalis MGH-2) [µg/mL] | ED50 (Strep. pyogenes C-203 [1]; first line below the MICs) [mg/kg] | ED50 (Strep. pyogenes C-203 [1]; second line below the MICs) [mg/kg] | MIC (Esch. coli Vogel [2]) [µg/mL] | MIC (Staph. aureus UC-76) [µg/mL] | MIC (Staph. aureus H 228) [µg/mL] | MIC (Strep. pyogenes C-203 [3]) [µg/mL] | ED50 (Esch. coli Vogel [4]; first line below the MICs) [mg/kg] | ED50 (Esch. coli Vogel [4]; second line below the MICs) [mg/kg] | MIC (Prot. rettgeri M 1771) [µg/mL] | MIC (Ent. cloacae MA2646) [µg/mL] | MIC (Klebs. pneumoniae MGH-2) [µg/mL] | MIC (Strep. pneumoniae SV-1) [µg/mL] | MIC (Pseud. aeruginosa UI-18 [5]) [µg/mL] | CC50 at 3 h [6] [µg/mL] | ED50 (Pseud. aeruginosa UI-18 [7]; first line below the MICs) [mg/kg] | ED50 (Pseud. aeruginosa UI-18 [7]; second line below the MICs) [mg/kg] | NOAEL (in vivo) [mg/kg]
CC(C)(N)[C@H]1CCN(c2c(F)cc3c(=O)c(C(=O)O)cn(C4CC4)c3c2Cl)C1 [Example 1, (S)-7-[3-(1-Amino-1-methylethyl)-1-pyrrolidinyl]-8-chloro-1-cyclopropyl-6-fluoro-1,4-dihydro-4-oxo-3-quinolinecarboxylic acid, monohydrochloride] | 0.05 | 13 | 4 | 0.1 | 0.013 | 0.025 | 0.025 | 27 | 4 | 0.4 | 0.1 | 0.2 | 0.013 | 1.6 | – | – | – | –
CC(C)(N)[C@@H]1CCN(c2c(F)cc3c(=O)c(C(=O)O)cn(C4CC4)c3c2Cl)C1 [Example 2, (R)-7-[3-(1-Amino-1-methylethyl-1-pyrrolidinyl]-8-chloro-1-cyclopropyl-6-fluoro-1,4-dihydro-4-oxo-3-quinolinecarboxylic acid, monohydrochloride] | 0.013 | 2 | 0.14 | 0.05 | ≤ 0.003 | 0.006 | ≤ 0.003 | 8 | 1 | 0.2 | 0.05 | 0.1 | ≤ 0.003 | 0.8 | 8 | 100 | 17 | –
CC(C)(N)[C@H]1CCN(c2nc3c(cc2F)c(=O)c(C(=O)O)cn3C2CC2)C1.Cl [Example 3, (S)-7-[3-(1-Amino-1-methylethyl)-1-pyrrolidinyl]-1-cyclopropyl-6-fluoro-1,4-dihydro-4-oxo-1,8-naphthyridine-3-carboxylic acid, monohydrochloride] | 0.1 | 32 | 7 | 0.2 | 0.025 | 0.1 | 0.1 | 10 | 3 | 0.8 | 0.2 | 0.4 | 0.05 | 3.1 | 58 | – | – | 30
CNC(C)(C)[C@@H]1CCN(c2c(F)cc3c(=O)c(C(=O)O)cn(C4CC4)c3c2Cl)C1 [Example 6, (R)-08-Chloro-1-cyclopropyl-6-fluoro-1,4-dihydro-7-{3-[1-methyl-1-(methylamino)ethyl]-1-pyrrolidinyl}-4-oxo-3-quinolinecarboxylic acid, monohydrochloride] | 0.025 | 3 | 0.5 | 0.2 | ≤ 0.003 | 0.013 | ≤ 0.003 | 11 | 2 | 0.4 | 0.2 | 0.4 | ≤ 0.003 | 3.1 | – | – | – | –
COc1c(N2CC[C@@H](C(C)(C)N)C2)c(F)cc2c(=O)c(C(=O)O)cn(C3CC3)c12 [Example 7, (R)-7-[3-(1-Amino-1-methylethyl)-1-pyrrolidinyl]-1-cyclopropyl-6-fluoro-1,4-dihydro-8-methoxy-4-oxo-3-quinolinecarboxylic acid] | 0.013 (≈ 0.0322 µM) | 3 | 0.8 | 0.1 (≈ 0.248 µM) | ≤ 0.003 | 0.013 (≈ 0.0322 µM) | < 0.003 | 26 | 3 | 0.4 (≈ 0.991 µM) | 0.1 (≈ 0.248 µM) | 0.2 (≈ 0.496 µM) | ≤ 0.003 | 1.6 (≈ 3.97 µM) | 18 (≈ 44.6 µM) | – | – | –
COc1c(N2CC[C@H](C(C)(C)N)C2)c(F)cc2c(=O)c(C(=O)O)cn(C3CC3)c12 [Example 8, (S)-7-[3-(1-Amino-1-methylethyl)-1-pyrrolidinyl]-1-cyclopropyl-6-fluoro-1,4-dihydro-8-methoxy-4-oxo-3-quinolinecarboxylic acid] | 0.05 (≈ 0.124 µM) | – | – | 0.2 (≈ 0.496 µM) | 0.013 (≈ 0.0322 µM) | 0.05 (≈ 0.124 µM) | 0.025 (≈ 0.062 µM) | – | – | 0.8 (≈ 1.98 µM) | 0.2 (≈ 0.496 µM) | 0.4 (≈ 0.991 µM) | 0.025 (≈ 0.062 µM) | 3.1 (≈ 7.68 µM) | – | – | – | –
CC(C)(N)[C@@H]1CCN(c2cc3c(c(N)c2F)c(=O)c(C(=O)O)cn3C2CC2)C1 [Example 9, (R)-7-[3-(1-Amino-1-methylethyl)-1-pyrrolidinyl]-5-amino-1-cyclopropyl-6-fluoro-1,4-dihydro-4-oxo-3-quinolinecarboxylic acid] | 0.05 (≈ 0.129 µM) | 11 | 2 | 0.4 (≈ 1.03 µM) | 0.006 (≈ 0.0154 µM) | 0.025 (≈ 0.0644 µM) | 0.006 (≈ 0.0154 µM) | – | – | 0.8 (≈ 2.06 µM) | 0.4 (≈ 1.03 µM) | 0.8 (≈ 2.06 µM) | 0.006 (≈ 0.0154 µM) | 3.1 (≈ 7.98 µM) | 13 (≈ 33.5 µM) | – | – | –
Cc1c(F)c(N2CC[C@@H](C(C)(C)N)C2)cc2c1c(=O)c(C(=O)O)cn2-c1ccc(F)cc1F [Example 10, (R)-7-[3-(1-Amino-1-methylethyl)-1-pyrrolidinyl]-1-(2,4-difluorophenyl)-6-fluoro-1,4-dihydro-5-methyl-4-oxo-3-quinolinecarboxylic acid] | 0.4 (≈ 0.871 µM) | – | – | 0.4 (≈ 0.871 µM) | 0.05 (≈ 0.109 µM) | 0.1 (≈ 0.218 µM) | 0.2 (≈ 0.435 µM) | – | – | 1.6 (≈ 3.48 µM) | 0.4 (≈ 0.871 µM) | 0.8 (≈ 1.74 µM) | 0.4 (≈ 0.871 µM) | 3.1 (≈ 6.75 µM) | – | – | – | –
Cc1c(F)c(N2CC[C@H](C(C)(C)N)C2)cc2c1c(=O)c(C(=O)O)cn2-c1ccc(F)cc1F [Example 11, S-7-[3-(1-amino-1-methylethyl)-1-pyrrolidinyl]-1-(2,4-difluorophenyl)-6-fluoro-1,4-dihydro-5-methyl-4-oxo-3-quinolinecarboxylic acid] | 0.1 (≈ 0.218 µM) | – | – | 0.1 (≈ 0.218 µM) | 0.013 (≈ 0.0283 µM) | 0.025 (≈ 0.0544 µM) | 0.013 (≈ 0.0283 µM) | – | – | 0.4 (≈ 0.871 µM) | 0.1 (≈ 0.218 µM) | 0.2 (≈ 0.435 µM) | 0.013 (≈ 0.0283 µM) | 1.6 (≈ 3.48 µM) | – | – | – | –
CC(C)(N)[C@H]1CCN(c2c(F)cc3c(=O)c(C(=O)O)cn(C4CC4)c3c2F)C1 [Example 12, (S)-7-[3-(1-Amino-1-methylethyl)-1-pyrrolidinyl]-1-cyclopropyl-6,8-difluoro-1,4-dihydro-4-oxo-3-quinolinecarboxylic acid] | 0.025 (≈ 0.0639 µM) | 12 | 0.6 | 0.1 (≈ 0.255 µM) | ≤ 0.003 | 0.025 (≈ 0.0639 µM) | 0.006 (≈ 0.0153 µM) | – | – | 0.4 (≈ 1.02 µM) | 0.2 (≈ 0.511 µM) | 0.2 (≈ 0.511 µM) | 0.006 (≈ 0.0153 µM) | 1.6 (≈ 4.09 µM) | – | – | – | –
CC(C)(N)C1CCN(c2nc3c(cc2F)c(=O)c(C(=O)O)cn3C2CC2)C1 (centres unmarked) [reference compound] | 0.05 (≈ 0.134 µM) | – | – | 0.1 (≈ 0.267 µM) | 0.013 (≈ 0.0347 µM) | 0.05 (≈ 0.134 µM) | 0.025 (≈ 0.0668 µM) | – | – | 0.4 (≈ 1.07 µM) | 0.1 (≈ 0.267 µM) | 0.2 (≈ 0.534 µM) | 0.025 (≈ 0.0668 µM) | 1.6 (≈ 4.27 µM) | 66 (≈ 176 µM) | – | – | 30
